Values after ≈ are worked out from the molar mass of the structure shown. Read-outs that look alike come from different tables or passages of the source.
Experiments:
[1] = test system: Staphylococcus aureus ATCC 25923 or ATCC 29213; assay: MIC, broth dilution (CA-SFM); type: cell-based; conditions: Staphylococcus aureus ATCC 25923 or ATCC 29213; mean (n = 3); read-out: MIC S. a
[2] = test system: MRSA ATCC 43300; assay: MIC, CO-ADD broth microdilution; type: cell-based, Staphylococcus aureus; conditions: Staphylococcus aureus, read-out: MIC MRSA
[3] = test system: Escherichia coli ATCC 25922; assay: MIC, CO-ADD broth microdilution; type: cell-based; conditions: ATCC25922, mean (n = 2)
[4] = test system: Pseudomonas aeruginosa PAO1 or ATCC 27853; assay: MIC, broth dilution (CA-SFM); type: cell-based; conditions: mean (n = 3)
[5] = test system: Klebsiella pneumoniae ATCC700603; assay: MIC, CO-ADD broth microdilution; type: cell-based; conditions: mean (n = 2)
[6] = test system: Acinetobacter baumannii ATCC19606; assay: MIC, CO-ADD broth microdilution; type: cell-based; conditions: mean (n = 2)
[7] = test system: Candida albicans ATCC90028; assay: Antifungal MIC, CO-ADD; type: cell-based; conditions: mean (n = 2)
Method: (§1) For the antifungal assay, fungi strains were cultured for 3 days on YPD agar at 30 °C. A yeast suspension of 1 × 10^6 to 5 × 10^6 CFU/mL was prepared from five colonies. These stock suspensions were diluted with yeast nitrogen base (YNB) (Becton Dickinson, 233520) broth to a final concentration of 2.5 × 10^3 CFU/mL. […] Plates were covered and incubated at 35 °C for 36 h without shaking. C. albicans MICs were determined by measuring the absorbance at OD530. […] Fluconazole was used as a positive fungal inhibitor standard for C. albicans and C. neoformans. […] Quality control (QC) of the assays was determined by antimicrobial controls and Z’-factor (using positive and negative controls).

[8] = test system: Cryptococcus neoformans ATCC208821; assay: Antifungal MIC, CO-ADD; type: cell-based; conditions: ATCC208821, Cryptococcus neoformans ATCC208821, mean (n = 2)
Method: as §1

[9] = Cytotoxicity assay (resazurin); type: cell-based, human; conditions: human; HEK293 cells; mean (n = 2); highest dose tested 32 μg/mL; read-out: Cytotoxicity (concentration of compound at 50% cytotoxicity, IC50)
[10] = test system: human red blood cells; assay: Hemolytic assay; type: cell-based; conditions: mean (n = 2)
Method: Human whole blood was washed three times with 3 volumes of 0.9% NaCl and then resuspended in same to a concentration of 0.5 × 10^8 cells/mL, as determined by manual cell count in a Neubauer hemocytometer. The washed cells were then added to the 384-well compound-containing plates for a final volume of 50 μL. After a 10 min shake on a plate shaker, the plates were then incubated for 1 h at 37 °C. After incubation, the plates were centrifuged at 1000× g for 10 min to pellet cells and debris; 25 μL of the supernatant was then transferred to a polystyrene 384-well assay plate. Hemolysis was determined by measuring the supernatant absorbance at […] (OD405). The absorbance was measured using a Tecan M1000 Pro monochromator plate reader. HC10 and HC50 (concentration at 10% and 50% hemolysis, respectively) were calculated by curve fitting the inhibition values vs. log (concentration) using a sigmoidal dose–response function with variable fitting values for top, bottom and slope.

Row | SMILES | MIC [1] | MIC ([2]; MRSA ATCC 43300, mean (n = 2)) | MIC [3] | MIC [4] | MIC [5] | MIC [6] | MIC [7] | MIC [8] | IC50 at 20 h [9] | Hemolysis (HC10, concentration at 10% hemolytic activity) [10] | MIC [2]
1 | O=C(CCC(=O)NCCC(c1ccccc1)c1ccccc1)NCCCNCCCCCCCCCCCCNCCCNC(=O)CCC(=O)NCCC(c1ccccc1)c1ccccc1 [Compound 16f, N^1,N^12-Bis(3-(4-((3,3-diphenylpropyl)amino)-4-oxobutanamido)propyl)dodecane-1,12-diaminium 2,2,2-trifluroracetate] | 3.13 µM (≈ 2.82 µg/mL) | ≤ 0.22 µM | > 28.3 µM | 300 µM (≈ 270 µg/mL) | > 28.3 µM | > 28.3 µM | > 28.3 µM | > 28.3 µM | > 28.3 µM | 3.17 µM | –
2 | Cl.Cl.S=C(NCCCNCCCCCCNCCCNC(=S)NC(c1ccccc1)c1ccccc1)NC(c1ccccc1)c1ccccc1 [Compound 6b, N^1,N^6-Bis(3-(3-benzhydrylthioureido)propyl)hexane-1,6-diaminium chloride] | > 265 µM | ≤ 0.33 µM | ≤ 0.33 µM | 265 µM | > 42.4 µM | 10.7 µM | ≤ 0.33 µM | > 42.4 µM | > 42.4 µM | 2.96 µM | –
3 | O=C(N[C@H](CO)[C@H](O)c1ccc([N+](=O)[O-])cc1)C(Cl)Cl [chloramphenicol, reference compound] | 1.5 to 3 µM (≈ 0.485 to 0.969 µg/mL) | – | – | – | – | – | – | – | – | – | –
4 | C[C@H]1c2cccc(O)c2C(=O)C2=C(O)[C@]3(O)C(=O)C(C(N)=O)=C(O)[C@@H](N(C)C)[C@@H]3[C@@H](O)[C@@H]21 [doxycycline, reference compound] | – | – | – | 90 µM (≈ 40 µg/mL) | – | – | – | – | – | – | –
5 | CC/C(=C(\c1ccccc1)c1ccc(OCCN(C)C)cc1)c1ccccc1 [Tamoxifen, reference compound] | – | – | – | – | – | – | – | – | 24 µM | – | –
6 | CN[C@H](CC(C)C)C(=O)N[C@H]1C(=O)N[C@@H](CC(N)=O)C(=O)N[C@H]2C(=O)N[C@H]3C(=O)N[C@H](C(=O)N[C@H](C(=O)O)c4cc(O)cc(O)c4-c4cc3ccc4O)[C@H](O)c3ccc(c(Cl)c3)Oc3cc2cc(c3O[C@@H]2O[C@H](CO)[C@@H](O)[C@H](O)[C@H]2O[C@H]2C[C@](C)(N)[C@H](O)[C@H](C)O2)Oc2ccc(cc2Cl)[C@H]1O [vancomycin, reference compound] | – | – | – | – | – | – | – | – | – | – | 0.7 µM (≈ 1.01 µg/mL)
7 | O=C(CCC(=O)NCCCc1ccccc1)NCCCNCCCCCCNCCCNC(=O)CCC(=O)NCCCc1ccccc1 [Compound 14b, N^1,N^6-Bis(3-(4-oxo-4-((3-phenylpropyl)amino)butanamido)propyl)hexane-1,6-diaminium 2,2,2-trifluoroacetate] | > 200 µM | > 35.8 µM | > 35.8 µM | > 200 µM | > 35.8 µM | > 35.8 µM | > 35.8 µM | > 35.8 µM | – | – | –
8 | O=C(CCC(=O)NCCCc1ccccc1)NCCCNCCCCCCCNCCCNC(=O)CCC(=O)NCCCc1ccccc1 [Compound 14c, N^1,N^7-Bis(3-(4-oxo-4-((3-phenylpropyl)amino)butanamido)propyl)heptane-1,7-diaminium 2,2,2-trifluoroacetate] | 200 µM (≈ 136 µg/mL) | > 35.3 µM | > 35.3 µM | > 200 µM | > 35.3 µM | > 35.3 µM | > 35.3 µM | > 35.3 µM | – | – | –
9 | OC(Cn1cncn1)(Cn1cncn1)c1ccc(F)cc1F [fluconazole, reference compound] | – | – | – | – | – | – | 0.4 µM (≈ 0.123 µg/mL) | 26 µM (≈ 7.96 µg/mL) | – | – | –
10 | [H]/N=C(/N)N[C@H]1[C@H](O)[C@@H](O)[C@H](O[C@@H]2O[C@@H](C)[C@](O)(C=O)[C@H]2O[C@@H]2O[C@@H](CO)[C@H](O)[C@@H](O)[C@@H]2NC)[C@@H](N/C(N)=N\[H])[C@@H]1O [streptomycin, reference compound] | 21.5 µM (≈ 12.5 µg/mL) | – | – | 21.5 µM (≈ 12.5 µg/mL) | – | – | – | – | – | – | –
11 | O=C(CCc1ccccc1)NCCCNCCCCNCCCNC(=O)CCc1ccccc1 [Compound 13a, N^1,N^4-Bis(3-(3-phenylpropanamido)propyl)butane-1,4-diaminium 2,2,2-trifluoroacetate] | 720 µM (≈ 336 µg/mL) | > 46.1 µM | > 46.1 µM | 720 µM (≈ 336 µg/mL) | > 46.1 µM | > 46.1 µM | > 46.1 µM | > 46.1 µM | – | – | –
